Assay results from article PMC6934184, “Selective DNA-PKcs inhibition extends the therapeutic index of localized radiotherapy and chemotherapy” (The Journal of Clinical Investigation, 2019).
Several values for one entry are separate records, joined by “and”; a condition that tells them apart may be missing. Identical values can stand only once. Entries after “also recorded” stand apart in the source; their conditions may differ.

System: SJSA-1 tumor xenografts
Test: subcutaneous SJSA-1 xenograft with parenteral etoposide
Assay type: in vivo, CD-1 nude mice
Experimental: Combining systemic administration of etoposide + NU5455 in vivo
SJSA1 cells (1 x 10^7 cells/mouse in 50 µl, 50% v/v Matrigel) were implanted s.c. into the right flank of female CD-1 nude mice. When tumor volumes reached 103-121 mm3 mice were treated daily, for five consecutive days, with NU5455 (30 mg/kg or 100 mg/kg once -daily p.o. in NMP:Encapsin (30% aq):PEG4000 (1:6:3 v/v/v) ) or vehicle, followed immediately with etoposide (5 mg/kg i.p. in saline). Body weight and tumor volume measurements were taken daily during treatment and three times per week post -treatment. Tumor volume was calculated from two-dimensional electronic caliper measurements (Mitutoyo) using the equation ‘width2 x length/2’, where width was the smaller side, and length the longer dimension of the tumor. Mice were humanely killed when; (i) an adverse effect on clinical condition was evident, (ii) tumor bilateral measurements reached 10 mm x 10 mm, (iii) a tumor measurement in any di mension reached 15 mm, or (iv) at study termination. […]

CN(C(=O)CN1CCOCC1)c1ccc2sc3c(-c4cccc5c(=O)cc(N6CC7CCC(C6)O7)oc45)cccc3c2c1 [NU5455]
enhancement of etoposide antitumor effect (NU5455 30 mg/kg oral + etoposide 5 mg/kg i.p., 5 consecutive days): does not significantly enhance; also recorded: did not enhance it significantly
body weight (NU5455 100 mg/kg oral + etoposide 5 mg/kg i.p.): increased weight loss by day 8
enhancement of etoposide antitumor activity (NU5455 100 mg/kg oral + etoposide 5 mg/kg i.p., 5 sequential days): potentiated significantly
animals requiring humane intervention (>15% body-weight loss) (day 8, NU5455 100 mg/kg oral + etoposide 5 mg/kg i.p.): 2 of 10 and 2
tolerability, NU5455 alone (greater dose (100 mg/kg oral)): well tolerated by itself
